Marks after values point to notes of the source that are not given here.
Experiment: physchem
Assay type: physicochemical
Protocol: Measurement of Log P values as provided herein was performed according to EEC directive 79/831 Annex V.A8 by HPLC (High Performance Liquid Chromatography) on reversed phase columns with the following methods: […] If more than one Log P value is available within the same method, all the values are given and separated by “+”. Calibration was done with straight-chain alkan2-ones (with 3 to 16 carbon atoms) with known Log P values (measurement of Log P values using retention times with linear interpolation between successive alkanones). Lambda-max-values were determined using UV-spectra from 200 nm to 400 nm and the peak values of the chromatographic signals

Row | SMILES | LogP
1 | O=C(NCCc1ccc2c(c1)CCO2)c1cc(Cl)ncc1Oc1cccc(C(F)(F)F)c1 [Compound I-104] | 3.98^[a]
2 | O=C(NCCc1ccc2c(c1)OCCO2)c1cc(Cl)ncc1Oc1cccc(C(F)(F)F)c1 [Compound I-105] | 3.84^[a]
3 | CC(C)Oc1ccc(CCNC(=O)c2cc(Cl)ncc2Oc2cccc(C(F)(F)F)c2)cn1 [Compound I-106] | 4.08^[a]
4 | O=C(NCCc1ccc(C(F)(F)F)cn1)c1cc(Cl)ncc1Oc1cccc(C(F)(F)F)c1 [Compound I-107] | 3.91^[a]
5 | O=C(NCCc1ccc2c(c1)OCO2)c1cc(Cl)ncc1Oc1cccc(C(F)(F)F)c1 [Compound I-108] | 3.87^[a]
6 | O=C(NCCc1cnc(C(F)(F)F)nc1)c1cc(Cl)ncc1Oc1cccc(C(F)(F)F)c1 [Compound I-110] | 3.57^[a]
7 | Cc1ccc(CCNC(=O)c2cc(Cl)ncc2Oc2ccc(C(F)(F)F)c(Cl)c2)c(C)c1 [Compound I-111] | 4.48^[a]
8 | Cc1ccc(CCNC(=O)c2cc(C(C)O)ncc2Oc2cccc(C(F)(F)F)c2)c(C)c1 (centres unmarked) [Compound I-112] | 3.67^[a]
9 | Cc1ccc(CCNC(=O)c2cc(C(C)F)ncc2Oc2cccc(C(F)(F)F)c2)c(C)c1 (centres unmarked) [Compound I-114] | 4.62^[a]
10 | Cc1ccc(CCNC(=O)c2cc(C(F)(F)F)ncc2Oc2cccc(C3CC3)c2F)c(C)c1 [Compound I-116] | 5.38^[a]
11 | Cn1cc(-c2ccc(C(F)(F)CNC(=O)c3cc(Cl)ncc3Oc3cccc(C(F)F)c3)c(Cl)c2)cn1 [Compound I-117] | 3.64^[a]
12 | COCCc1cc(C(=O)NCCc2ccc(C)cc2C)c(Oc2cccc(C(F)(F)F)c2)cn1 [Compound I-118] | 4.16^[a]
13 | CC(=O)c1ccc(C(F)(F)CNC(=O)c2cc(Cl)ncc2Oc2cccc(C(F)F)c2)c(Cl)c1 [Compound I-119] | 3.81^[a]
14 | CCOC(=O)c1ccc(C(F)(F)CNC(=O)c2cc(Cl)ncc2Oc2cccc(C(F)F)c2)c(Cl)c1 [Compound I-120] | 4.47^[a]
15 | Cc1ccc(CCNC(=O)c2cc(C3CCOC3)ncc2Oc2cccc(C(F)(F)F)c2)c(C)c1 (centres unmarked) [Compound I-121] | 4.30^[a]
16 | Cc1ccc(CCNC(=O)c2cc(C3CCCC3)ncc2Oc2cccc(C(F)(F)F)c2)c(C)c1 [Compound I-122] | 5.57^[a]
17 | C=Cc1ccc(C(F)(F)CNC(=O)c2cc(Cl)ncc2Oc2cccc(C(F)F)c2)c(Cl)c1 [Compound I-123] | 4.47^[a]
18 | Cc1ccc(CCNC(=O)c2cc(Cl)ncc2Oc2cccc(C#N)c2F)c(C)c1 [Compound I-126] | 3.91^[a]
19 | Cc1ccc(CCNC(=O)c2cc(Cl)ncc2Oc2cccc(C=O)c2F)c(C)c1 [Compound I-127] | 3.85^[a]
20 | Cc1ccc(CCNC(=O)c2cc(Cl)ncc2Oc2cccc(Cl)c2F)c(C)c1 [Compound I-128] | 4.71^[a]
21 | C#Cc1cccc(Oc2cnc(Cl)cc2C(=O)NCCc2ccc(C)cc2C)c1 [Compound I-129] | 4.45^[a]
22 | Cc1ccc(CCNC(=O)c2cc(Cl)ncc2Oc2cccc([N+](=O)[O-])c2)c(C)c1 [Compound I-130] | 4.08^[a]
23 | Cc1ccc(CCNC(=O)c2cc(Cl)ncc2Oc2cccc(C)c2F)c(C)c1 [Compound I-131] | 4.76^[a]
24 | COc1cccc(Oc2cnc(Cl)cc2C(=O)NCCc2ccc(C)cc2C)c1F [Compound I-132] | 4.26^[a]

Row | SMILES | LogP
25 | Cc1ccc(CCNC(=O)c2cc(Cl)ncc2Oc2ccccc2)c(C)c1 [Compound I-133] | 4.41^[a]
26 | Cc1ccc(CCNC(=O)c2cc(Cl)ncc2Oc2cccc(Br)c2F)c(C)c1 [Compound I-134] | 4.78^[a]
27 | CCc1cccc(Oc2cnc(Cl)cc2C(=O)NCCc2ccc(C)cc2C)c1 [Compound I-135] | 5.23^[a]
28 | Cc1ccc(CCNC(=O)c2cc(Cl)ncc2Oc2cccc(OC(F)F)c2)c(C)c1 [Compound I-136] | 4.43^[a]
29 | Cc1ccc(CCNC(=O)c2cc(Cl)ncc2Oc2cccc(Br)c2)c(C)c1 [Compound I-137] | 4.86^[a]
30 | Cc1ccc(CCNC(=O)c2cc(Cl)ncc2Oc2cccc(C3COC3)c2)c(C)c1 [Compound I-139] | 3.88^[a]
31 | Cc1ccc(CCNC(=O)c2cc(Cl)ncc2Oc2cccc(I)c2)c(C)c1 [Compound I-141] | 5.01^[a]
32 | C#Cc1ccc(C(F)(F)CNC(=O)c2cc(Cl)ncc2Oc2cccc(C(F)F)c2)c(Cl)c1 [Compound I-143] | 4.32^[a]
33 | Cc1cccc(Oc2cnc(Cl)cc2C(=O)NCC(F)(F)c2ccc(Br)cc2Cl)c1 [Compound I-145] | 5.08^[a]
34 | C=Cc1c(Cl)ncc(Oc2cccc(C(F)(F)F)c2)c1C(=O)NCC(F)(F)c1ccc(C)cc1C [Compound I-146] | 4.93^[a]
35 | COC(=O)c1cccc(Oc2cnc(Cl)cc2C(=O)NCCc2ccc(C)cc2C)c1 [Compound I-147] | 4.20^[a]
36 | Cc1ccc(C(F)(F)CNC(=O)c2c(Oc3cccc(C(F)(F)F)c3)cnc(Cl)c2C2CC2)c(C)c1 [Compound I-149] | 5.04^[a]
37 | Cc1ccc(CCNC(=O)c2cc(Cl)ncc2Oc2cccc3c2CCC3)c(C)c1 [Compound I-150] | 5.45^[a]
38 | Cc1ccc(CCNC(=O)c2cc(Cl)ncc2Oc2cccc(-c3ccccc3)c2)c(C)c1 [Compound I-151] | 5.44^[a]
39 | CCN(CCc1ccccc1)C(=O)c1cc(Cl)ncc1Oc1cccc(C(F)(F)F)c1 [Compound I-152] | 4.44^[a]
40 | Cc1ccc(C(F)(F)CNC(=O)c2c(Oc3cccc(C4CC4)c3F)cnc(Cl)c2Cl)c(C)c1 [Compound I-153] | 5.08^[a]
41 | Cc1ccc(CCNC(=O)c2cc(Cl)ncc2Oc2ccc(F)c(Cl)c2)c(C)c1 [Compound I-154] | 4.72^[a]
42 | C=Cc1cccc(Oc2cnc(Cl)cc2C(=O)NCC(F)(F)c2ccc(C)cc2C)c1 [Compound I-155] | 4.96^[a]
43 | N#Cc1ccc(C(F)(F)CNC(=O)c2cc(Cl)ncc2Oc2cccc(C(F)F)c2)c(Cl)c1 [Compound I-156] | 3.87^[a]
44 | COCc1cccc(Oc2cnc(Cl)cc2C(=O)NCCc2ccc(C)cc2C)c1 [Compound I-157] | 4.33^[a]
45 | Cc1ccc(CCNC(=O)c2cc(Cl)nc(Cl)c2Oc2cccc(C(F)(F)F)c2)c(C)c1 [Compound I-158] | 5.14^[a]
46 | Cc1ccc(CCNC(=O)c2cc(Cl)ncc2Oc2cccc(-n3ccc(C(F)(F)F)n3)c2)c(C)c1 [Compound I-159] | 5.03^[a]
47 | CCc1cc(Oc2cnc(Cl)cc2C(=O)NCCc2ccc(C)cc2C)c(C(=O)OC)s1 [Compound I-162] | 4.51^[a]
48 | Cc1ccc(C(F)(F)CNC(=O)c2cc(Cl)ncc2Oc2cncc(C(F)(F)F)c2)c(C)c1 [Compound I-163] | 4.15^[a]

Row | SMILES | LogP
49 | O=C(c1cc(Cl)ncc1Oc1cccc(C(F)(F)F)c1)N(O)CCc1ccc(Cl)cc1 [Compound I-164] | 4.01^[a]
50 | Cc1ccc(CCNC(=O)c2cc(Cl)ncc2Oc2ccc(OC(F)(F)F)cc2)c(C)c1 [Compound I-165] | 4.97^[a]
51 | CCC(=O)N(CCc1ccccc1)C(=O)c1cc(Cl)ncc1Oc1cccc(C(F)(F)F)c1 [Compound I-166] | 5.08^[a]
52 | Cc1ccc(CCNC(=O)c2cc(Cl)ncc2Oc2ccc3ccccc3c2)c(C)c1 [Compound I-168] | 5.03^[a]
53 | Cc1ccc(C(F)(F)CNC(=O)c2c(Oc3cccc(C(F)(F)F)c3)cnc(Oc3cccc(C(F)(F)F)c3)c2-n2cccn2)c(C)c1 [Compound I-169] | 5.53^[a]
54 | Cc1ccc(CCNC(=O)c2cc(Cl)ncc2Oc2cccc(N(C)C)c2)c(C)c1 [Compound I-170] | 4.83^[a]
55 | COc1ccc(CCN(C(C)=O)C(=O)c2cc(Cl)ncc2Oc2cccc(C(F)(F)F)c2)cc1 [Compound I-171] | 4.55^[a]
56 | O=C(NCC(F)(F)c1ccc(-c2ccncc2Cl)cc1Cl)c1cc(-c2ccncc2Cl)ncc1Oc1cccc(C(F)(F)F)c1 [Compound I-172] | 4.33^[a]
57 | C=Cc1cc(C(=O)NCC(F)(F)c2ccc(C)cc2C)c(Oc2cccc(C3CC3)c2F)cn1 [Compound I-173] | 5.04^[a]
58 | CSc1c(Cl)ncc(Oc2cccc(C(F)(F)F)c2)c1C(=O)NCC(F)(F)c1ccc(C)cc1C [Compound I-174] | 4.85^[a]
59 | Cc1ccc(C(F)(F)CNC(=O)c2c(Oc3cccc(Cl)c3)cnc(Cl)c2Cl)c(C)c1 [Compound I-175] | 4.85^[a]
60 | CON(CCc1ccc(Cl)cc1Cl)C(=O)c1cc(Cl)ncc1Oc1cccc(C(F)(F)F)c1 [Compound I-177] | 5.24^[a]
61 | Cc1ccc(C(F)(F)CNC(=O)c2c(Br)cnc(Cl)c2Oc2cccc(Cl)c2)c(C)c1 [Compound I-178] | 5.04^[a]
62 | C#Cc1c(Cl)ncc(Oc2cccc(C(F)(F)F)c2)c1C(=O)NCC(F)(F)c1ccc(C)cc1C [Compound I-179] | 5.74^[a]
63 | COc1cccc(Oc2cnc(C)cc2C(=O)NCCc2ccc(C)cc2C)c1 [Compound I-180] | 3.50^[a]
64 | Cc1ccc(C(F)(F)CNC(=O)c2c(Oc3cccc(C(F)(F)F)c3)cnc(Cl)c2F)c(C)c1 [Compound I-181] | 4.85^[a]
65 | COc1cccc(Oc2cnc(C)cc2C(=O)NCC(F)(F)c2ccc(C)cc2C)c1 [Compound I-182] | 3.71^[a]
66 | Cc1ccc(CCNC(=O)c2cc(C)ncc2Oc2cccc(C(F)F)c2)c(C)c1 [Compound I-183] | 3.56^[a]
67 | Cc1ccc(CCNC(=O)c2ccncc2Oc2cccc(C(F)(F)F)c2)c(C)c1 [Compound I-184] | 3.11^[a]
68 | CCc1ccc(C(F)(F)CNC(=O)c2cc(Cl)ncc2Oc2cccc(C3CC3)c2)c(Cl)c1 [Compound I-185] | 5.49^[a]
69 | Cc1ccc(CCNC(=O)c2cc(C3CC3)ncc2Oc2cccc(C3CC3)c2)c(C)c1 [Compound I-186] | 5.22^[a]
70 | CCc1ccc(C(F)(F)CNC(=O)c2cc(CC)ncc2Oc2cccc(C3CC3)c2F)c(Cl)c1 [Compound I-187] | 5.45^[a]
71 | Cc1ccc(C(F)(F)CNC(=O)c2c(Oc3cccc(C(F)(F)F)c3)cnc(Cl)c2-c2ccccc2)c(C)c1 [Compound I-188] | 5.12^[a]
